From patent publication US20080318949A1, “Pyrazolopyrimidinone Derivatives, Their Preparation And Their Use” (Topharman Shanghai Co., Ltd, priority 2005, published 2008)

Molecular target: T1, PDE5 from human platelets (Homo sapiens, UniProt O76074)
T1 construct: from tissue; host or cells: human platelets
Assay: PDE5 inhibitory activity test (scintillation proximity assay)
Assay type: biochemical
Details: PDE5 from human platelets
Text: The PDE5 and PDE3 were isolated form human platelets, while the PDE6 was isolated form bovine retinas. The enzyme inhibitory activity test conducted immediately after the enzymes had been isolated, using a scintillation proximity assay for the direct detection of AMP/GMP by the TRKQ7100 and TRKQ7090 kit. In summary, the effect of PDE inhibitors was investigated by assaying a fixed amount of enzyme in the presence of varying inhibitor concentrations and low substrate. The final assay volume was made up to 100 μl with 10 μl assay buffer (50 mM Tris/HCl PH 7.5, 8.3 mM MgCl2, 1.7 mM EGTA), and water. Reactions were initiated with enzyme, incubate for 30 minutes at 30° C. and terminated with 50 μl yttrium silicate SPA beads suspension containing zinc sulphate. Shook for 20 minutes and settled for 30 minutes in the dark, then counted on a BECKMAN LS6500 MULTI-PURPOSE SCINTILLATION COUNTER. The IC50 value for the compounds according the present invention was calculated according the counts.
According to the above-mentioned method, the inhibitory activities of some compounds of formula IA and IB according to the invention against PDE5 from human platelets were determined.

Row | Compound | IC50 [nM]
1 | 1-methyl-5-{2-ethoxy-5-{[1-methyl-1-[2-[1-methyl-1-(2-hydroxyethyl)]amino]ethyl]amidosulfonyl}phenyl}-3-n-propyl-1,6-dihydro-7H-pyrazolo[4,3-d]pyrimidin-7-one [Example 21] | 0.928
2 | 1-methyl-5-{2-propoxy-5-[[1-(2-hydroxyethoxyethyl)-1-(2-morpholin-1-yl)ethyl]amidosulfonyl]phenyl}-3-n-propyl-1,6-dihydro-7H-pyrazolo[4,3-d]pyrimidin-7-one [Example 104] | 13.1
3 | CCCc1nn(C)c2c(=O)[nH]c(-c3cc(S(=O)(=O)N(C)CCN(C)CCOCCOCCOCc4ccccc4)ccc3OCC)nc12 [Example 22, 1-methyl-5-{2-ethoxy-5-{[1-methyl-1-[2-[1-methyl-1-(2-benzyloxyethoxyethoxyethyl)]amino]ethyl]amidosulfonyl}phenyl}-3-n-propyl-1,6-dihydro-7H-pyrazolo[4,3-d]pyrimidin-7-one] | 0.294
4 | CCCc1nn(C)c2c(=O)[nH]c(-c3cc(S(=O)(=O)N(CC)CCN(CC)CCOC(C)=O)ccc3OCC)nc12 [Example 17] | 8.55
5 | 1-methyl-5-{2-propoxy-5-[[1-ethyl-1-(2-acetoxyethyl)]amidosulfonyl]phenyl}-3-n-propyl-1,6-dihydro-7H-pyrazolo[4,3-d]pyrimidin-7-one [Example 94] | 5.41
6 | 1-methyl-5-{2-ethoxy-5-{[1-ethyl-1-[2-[1-ethyl-1-(2-hydroxyethoxyethyl)]amino]ethyl]amidosulfonyl}phenyl}-3-n-propyl-1,6-dihydro-7H-pyrazolo[4,3-d]pyrimidin-7-one [Example 20] | 0.505
7 | 1-methyl-5-{2-ethoxy-5-[bis(3-acetoxypropyl)amidosulfonyl]phenyl}-3-n-propyl-1,6-dihydro-7H-pyrazolo[4,3-d]pyrimidin-7-one [Example 108] | 17.4
8 | CCOc1ccc(S(=O)(=O)N(CCO)CCO)cc1-c1nc2c(CC)nn(C)c2c(=O)[nH]1 [Example 8] | 2.14
9 | 1-methyl-5-{2-methoxyethoxy-5-[bis(2-hydroxyethyl)amidosulfonyl]phenyl}-3-n-propyl-1,6-dihydro-7H-pyrazolo[4,3-d]pyrimidin-7-one [Example 10] | 22.2
10 | CCCc1nn(C)c2c(=O)[nH]c(-c3cc(S(=O)(=O)N(CCOCCO)CCN4CCOCC4)ccc3OCC)nc12 [Example 28, 1-methyl-5-{2-ethoxy-5-[[1-(2-hydroxyethoxyethyl)-1-(2-morpholin-1-yl)ethyl]amidosulfonyl]phenyl}-3-n-propyl-1,6-dihydro-7H-pyrazolo[4,3-d]pyrimidin-7-one] | 0.681
11 | CCOc1ccc(S(=O)(=O)N(CCOC(=O)c2cccnc2)CCOC(=O)c2cccnc2)cc1-c1nc2c(CC)nn(C)c2c(=O)[nH]1 [Example 7, 1-methyl-5-{2-ethoxy-5-[bis(2-nicotinoyloxyethyl)amidosulfonyl]phenyl}-3-ethyl-1,6-dihydro-7H-pyrazolo[4,3-d]pyrimidin-7-one] | 0.5
12 | CCCc1nn(C)c2c(=O)[nH]c(-c3cc(S(=O)(=O)N(CCN4CCOCC4)Cc4ccccc4)ccc3OC)nc12 [Example 26, 1-methyl-5-{2-methoxy-5-[[1-benzyl-1-(2-morpholin-1-yl)ethyl]amidosulfonyl]phenyl}-3-n-propyl-1,6-dihydro-7H-pyrazolo[4,3-d]pyrimidin-7-one] | 24.9
13 | CCOc1ccc(S(=O)(=O)N(CCN2CCOCC2)Cc2ccccc2)cc1-c1nc2c(CC)nn(C)c2c(=O)[nH]1 [Example 27, 1-methyl-5-{2-ethoxy-5-[[1-benzyl-1-(2-morpholin-1-yl)ethyl]amidosulfonyl]phenyl}-3-ethyl-1,6-diydro-7H-pyrazolo[4,3-d]pyrimidin-7-one] | 0.456
14 | 1-methyl-5-{2-propoxy-5-[[1-(3-ethoxyethyl)-1-(2-hydroxyethyl)]amidosulfonyl]phenyl}-3-n-propyl-1,6-dihydro-7H-pyrazolo[4,3-d]pyrimidin-7-one [Example 116] | 11.2
15 | CCCOc1ccc(S(=O)(=O)N(C)CCN(C)CCO)cc1-c1nc2c(CCC)nn(C)c2c(=O)[nH]1 [Example 23, 1-methyl-5-{2-propoxy-5-{[1-methyl-1-[2-[1-methyl-1-(2-hydroxyethyl)]amino]ethyl]amidosulfonyl}phenyl}-3-n-propyl-1,6-dihydro-7H-pyrazolo[4,3-d]pyrimidin-7-one] | 0.072
16 | CCCc1nn(C)c2c(=O)[nH]c(-c3cc(S(=O)(=O)N(CCO)CCN(CC)CC)ccc3OCC)nc12 [Example 13, 1-methyl-5-{2-ethoxy-5-[1-(2-diethylaminoethyl)-1-(2-hydroxyethyl)amidosulfonyl]phenyl}-3-n-propyl-1,6-dihydro-7H-pyrazolo[4,3-d]pyrimidin-7-one] | 7.37
17 | CCCOc1ccc(S(=O)(=O)N(CC)CCN2CCOCC2)cc1-c1nc2c(CCC)nn(C)c2c(=O)[nH]1 [Example 41, 1-methyl-5-{2-propoxy-5-[[1-ethyl-1-(2-morpholin-1-yl)ethyl]amidosulfonyl]phenyl}-3-propyl-1,6-dihydro-7H-pyrazolo[4,3-d]pyrimidin-7-one] | 10.5
18 | 1-methyl-5-{2-propoxy-5-[[1-(2-pyridylmethyl)-1-(2-piperidin-1-yl)ethyl]amidosulfonyl]phenyl}-3-n-propyl-1,6-dihydro-7H-pyrazolo[4,3-d]pyrimidin-7-one [Example 87] | 8.77
19 | CCCc1nn(C)c2c(=O)[nH]c(-c3cc(S(=O)(=O)N(CCOC(C)=O)CCN(CC)CC)ccc3OCC)nc12 [Example 12, 1-methyl-5-{2-ethoxy-5-[[1-(2-diethylaminoethyl)-1-(2-acetoxyethyl)]amidosulfonyl]phenyl}-3-n-propyl-1,6-dihydro-7H-pyrazolo[4,3-d]pyrimidin-7-one] | 6.98
20 | CCCc1nn(C)c2c(=O)[nH]c(-c3cc(S(=O)(=O)N(CC)CCN(CC)CCO)ccc3OCC)nc12 [Example 18] | 6.32
21 | CCCc1nn(C)c2c(=O)[nH]c(-c3cc(S(=O)(=O)N(CCOC)CCN(CC)CC)ccc3OCC)nc12 [Example 11, 1-methyl-5-{2-ethoxy-5-[[1-(2-diethylaminoethyl)-1-(2-methoxyethyl)]amidosulfonyl]phenyl}-3-n-propyl-1,6-dihydro-7H-pyrazolo[4,3-d]pyrimidin-7-one] | 38.1
22 | CCOc1ccc(S(=O)(=O)N(CCOC(C)=O)CCOC(C)=O)cc1-c1nc2c(CC)nn(C)c2c(=O)[nH]1 [Example 6, 1-methyl-5-{2-ethoxy-5-[bis(2-acetoxyethyl)amidosulfonyl]phenyl}-3-ethyl-1,6-dihydro-7H-pyrazolo[4,3-d]pyrimidin-7-one] | 0.74
23 | CCCc1nn(C)c2c(=O)[nH]c(-c3cc(S(=O)(=O)N(CCOCCOC(C)=O)CCN(CC)CC)ccc3OCC)nc12 [Example 15, 1-methyl-5-{2-ethoxy-5-[1-(2-diethylaminoethyl)-1-(2-acetoxyethoxyethyl)amidosulfonyl]phenyl}-3-n-propyl-1,6-dihydro-7H-pyrazolo[4,3-d]pyrimidin-7-one] | 10.6
24 | CCCOc1ccc(S(=O)(=O)N(CCCO)CCCO)cc1-c1nc2c(CCC)nn(C)c2c(=O)[nH]1 [Example 37] | 4.9
25 | CCCOc1ccc(S(=O)(=O)N(CCO)CCN(CC)CC)cc1-c1nc2c(CCC)nn(C)c2c(=O)[nH]1 [Example 14, 1-methyl-5-{2-propoxy-5-[1-(2-diethylaminoethyl)-1-(2-hydroxyethyl)amidosulfonyl]phenyl}-3-n-propyl-l,6-dihydro-7H-pyrazolo[4,3-d]pyrimidin-7-one] | 0.862
26 | CCOc1ccc(S(=O)(=O)N(CC)CCN(CC)CCOC(C)=O)cc1-c1nc2c(CC)nn(CC)c2c(=O)[nH]1 [Example 19, 1-ethyl-5-{2-ethoxy-5-{[1-ethyl-1-[2-[1-ethyl-1-(2-acetoxyethyl)]amino]ethyl]amidosulfonyl}phenyl}-3-n-propyl-1,6-dihydro-7H-pyrazolo[4,3-d]pyrimidin-7-one] | 4.29
27 | 1-methyl-5-{2-propoxy-5-[[1-benzyl-1-(2-pyrrolidin-1-yl)ethyl]amidosulfonyl]phenyl}-3-n-propyl-1,6-dihydro-7H-pyrazolo[4,3-d]pyrimidin-7-one [Example 84] | 11.7
28 | CCCc1nn(C)c2c(=O)[nH]c(-c3cc(S(=O)(=O)N(CCO)CCN4CCCCC4)ccc3OCC)nc12 [Example 29, 1-methyl-5-{2-ethoxy-5-[[1-(2-hydroxyethyl)-1-(2-piperidin-1-yl)ethyl]amidosulfonyl]phenyl}-3-n-propyl-1,6-dihydro-7H-pyrazolo[4,3-d]pyrimidin-7-one] | 0.31
29 | CCCc1nn(C)c2c(=O)[nH]c(-c3cc(S(=O)(=O)N(CCOC(C)=O)CCOC(C)=O)ccc3OCCOC)nc12 [Example 9, 1-methyl-5-{2-methoxyethoxy-5-[bis(2-acetoxyethyl)amidosulfonyl]phenyl}-3-n-propyl-1,6-dihydro-7H-pyrazolo[4,3-d]pyrimidin-7-one] | 16.9
30 | CCCc1nn(C)c2c(=O)[nH]c(-c3cc(S(=O)(=O)N(CCOCCO)CCN(CC)CC)ccc3OCC)nc12 [Example 16, 1-methyl-5-{2-ethoxy-5-[1-(2-diethylaminoethyl)-1-(2-hydroxyethoxyethyl)amidosulfonyl]phenyl}-3-n-propyl-1,6-dihydro-7H-pyrazolo[4,3-d]pyrimidin-7-one] | 13.4
